# Measured values published in patent US10858362B2, “Imidazopyrazinones as PDE1 inhibitors” (H. Lundbeck A/S, priority 2015, dated 2020).
# What was measured:
# Format in all cases: biochemical
# PDE1A = PDE1A (Homo sapiens (Human), UniProt P54750); experiment: PDE1 inhibition assay, PDE1A; conditions: for IC50: 15 nM tritium labelled cAMP
# Experimental: (§1) Reactions were initiated by addition of the cyclic nucleotide substrate, and reactions were allowed to proceed for 1 h at room temperature before being terminated through mixing with 20 μL (0.2 mg) yttrium silicate SPA beads (PerkinElmer).
# PDE1B = PDE1B (Homo sapiens (Human), UniProt Q01064); experiment: PDE1 inhibition assay, PDE1B; conditions: for IC50: 15 nM tritium labelled cAMP
# Experimental: as §1, with “(PerkinElmer). The beads were allowed to settle for 1 h in the dark before the plates were counted in a Wallac 1450 Microbeta counter.” for “(PerkinElmer).”
# PDE1C = PDE1C (Homo sapiens (Human), UniProt Q14123); experiment: PDE1 inhibition assay, PDE1C; conditions: for IC50: 15 nM tritium labelled cAMP
# Experimental: as §1, with “(PerkinElmer). The beads were allowed to settle for 1 h in the dark before the plates were counted in a Wallac 1450 Microbeta counter.” for “(PerkinElmer).”
# PDE9 = PDE9 (Homo sapiens (Human), UniProt O76083); experiment: PDE9 inhibition assay
# Experimental: A PDE9 assay may for example, be performed as follows: The assay is performed in 60 μL samples containing a fixed amount of the relevant PDE enzyme (sufficient to convert 20-25% of the cyclic nucleotide substrate), a buffer (50 mM HEPES7.6; 10 mM MgCl2; 0.02% Tween20), 0.1 mg/ml BSA, 225 pCi of ^3H-labelled cyclic nucleotide substrate, tritium labeled cAMP to a final concentration of 5 nM and varying amounts of inhibitors. Reactions are initiated by addition of the cyclic nucleotide substrate, and reactions are allowed to proceed for one hr at room temperature before being terminated through mixing with 15 μL 8 mg/mL yttrium silicate SPA beads (Amersham). The beads are allowed to settle for one hr in the dark before the plates are counted in a Wallac 1450 Microbeta counter.
# In the context of the present invention the assay was performed in 60 μL assay buffer (50 mM HEPES pH 7.6; 10 mM MgCl2; 0.02% Tween20) containing enough PDE9 to convert 20-25% of 10 nM ^3H-cAMP and varying amounts of inhibitors. Following a 1 hr incubation the reactions were terminated by addition of 15 μL 8 mg/mL yttrium silicate SPA beads (Amersham). The beads were allowed to settle for one hr in the dark before the plates were counted in a Wallac 1450 Microbeta counter.
# Chain of PDE1B (Q01064 whole entry): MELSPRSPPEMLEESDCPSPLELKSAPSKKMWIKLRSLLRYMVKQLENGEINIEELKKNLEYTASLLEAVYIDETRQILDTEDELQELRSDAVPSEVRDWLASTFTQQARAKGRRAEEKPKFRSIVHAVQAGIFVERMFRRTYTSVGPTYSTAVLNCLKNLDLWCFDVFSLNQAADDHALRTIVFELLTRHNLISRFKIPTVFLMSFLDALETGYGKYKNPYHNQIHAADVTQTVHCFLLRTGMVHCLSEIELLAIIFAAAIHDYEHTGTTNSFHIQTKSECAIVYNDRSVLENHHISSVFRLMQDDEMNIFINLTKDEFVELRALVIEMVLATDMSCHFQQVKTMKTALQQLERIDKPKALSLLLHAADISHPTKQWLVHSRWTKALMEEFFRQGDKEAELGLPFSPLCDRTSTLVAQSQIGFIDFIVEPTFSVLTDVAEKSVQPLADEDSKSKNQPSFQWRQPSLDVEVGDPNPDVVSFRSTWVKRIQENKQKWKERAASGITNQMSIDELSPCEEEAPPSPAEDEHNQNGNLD
# Chain of PDE1C (Q14123 whole entry): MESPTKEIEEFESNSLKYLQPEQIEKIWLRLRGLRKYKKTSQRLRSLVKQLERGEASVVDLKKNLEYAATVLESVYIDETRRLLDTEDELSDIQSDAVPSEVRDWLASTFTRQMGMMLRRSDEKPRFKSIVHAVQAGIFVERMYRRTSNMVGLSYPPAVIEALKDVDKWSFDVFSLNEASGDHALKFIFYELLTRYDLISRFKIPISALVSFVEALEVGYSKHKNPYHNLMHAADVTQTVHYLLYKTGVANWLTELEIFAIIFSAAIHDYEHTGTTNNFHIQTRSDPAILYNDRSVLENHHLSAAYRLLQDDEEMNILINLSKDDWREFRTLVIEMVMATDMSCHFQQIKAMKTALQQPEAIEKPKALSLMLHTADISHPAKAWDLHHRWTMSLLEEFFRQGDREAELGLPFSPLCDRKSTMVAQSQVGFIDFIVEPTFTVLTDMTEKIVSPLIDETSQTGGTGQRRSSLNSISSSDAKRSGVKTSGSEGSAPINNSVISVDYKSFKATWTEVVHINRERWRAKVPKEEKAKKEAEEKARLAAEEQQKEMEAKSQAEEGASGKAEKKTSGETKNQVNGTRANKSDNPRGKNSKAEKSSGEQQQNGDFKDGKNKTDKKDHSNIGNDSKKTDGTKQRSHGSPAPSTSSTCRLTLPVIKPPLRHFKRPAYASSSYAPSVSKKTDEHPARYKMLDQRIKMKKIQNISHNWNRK
# Chain of PDE1A (P54750 whole entry): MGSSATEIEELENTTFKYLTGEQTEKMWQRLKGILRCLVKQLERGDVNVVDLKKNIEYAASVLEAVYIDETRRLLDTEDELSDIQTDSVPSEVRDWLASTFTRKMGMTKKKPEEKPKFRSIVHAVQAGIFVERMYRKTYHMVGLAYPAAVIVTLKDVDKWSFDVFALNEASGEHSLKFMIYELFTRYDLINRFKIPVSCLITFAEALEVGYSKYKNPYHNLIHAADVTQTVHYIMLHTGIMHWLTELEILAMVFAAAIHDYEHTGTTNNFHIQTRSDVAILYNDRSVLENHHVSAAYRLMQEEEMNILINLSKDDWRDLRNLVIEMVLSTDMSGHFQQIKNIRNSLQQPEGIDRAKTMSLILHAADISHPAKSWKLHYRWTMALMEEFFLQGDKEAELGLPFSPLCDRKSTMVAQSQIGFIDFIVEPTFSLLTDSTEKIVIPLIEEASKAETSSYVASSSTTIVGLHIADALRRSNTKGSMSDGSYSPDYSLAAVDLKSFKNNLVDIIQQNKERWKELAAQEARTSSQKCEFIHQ
# Chain of PDE9 (O76083 whole entry): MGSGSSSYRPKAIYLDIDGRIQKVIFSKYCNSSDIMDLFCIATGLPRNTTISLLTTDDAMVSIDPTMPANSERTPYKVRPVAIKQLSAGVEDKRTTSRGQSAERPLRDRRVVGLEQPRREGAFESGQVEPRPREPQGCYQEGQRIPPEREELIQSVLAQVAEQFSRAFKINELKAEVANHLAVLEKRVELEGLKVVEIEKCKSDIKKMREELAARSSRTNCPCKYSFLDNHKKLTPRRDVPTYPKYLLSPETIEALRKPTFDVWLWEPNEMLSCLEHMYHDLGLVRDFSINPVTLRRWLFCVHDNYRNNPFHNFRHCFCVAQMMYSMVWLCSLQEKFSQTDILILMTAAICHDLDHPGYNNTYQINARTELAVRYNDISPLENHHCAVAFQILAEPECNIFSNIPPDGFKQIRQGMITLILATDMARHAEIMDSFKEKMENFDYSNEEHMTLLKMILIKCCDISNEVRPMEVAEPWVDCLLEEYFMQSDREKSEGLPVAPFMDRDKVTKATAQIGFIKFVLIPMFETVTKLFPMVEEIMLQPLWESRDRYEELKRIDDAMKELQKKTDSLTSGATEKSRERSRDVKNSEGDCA
Compound,IC50 (PDE1A) [nM],IC50 (PDE1B) [nM],IC50 (PDE1C) [nM],inhibition at 10 µM (PDE9) [%],"inhibition at 2 µM (PDE1A; read-out: PDE1A, % inhibition (at 2 μM)) [%]","inhibition at 2 µM (PDE1B; read-out: PDE1B, % inhibition (at 2 μM)) [%]",% inhibition of PDE9 at 10 microM (PDE9) [%],"PDE1A, % inhibition (at 1 μM) (PDE1A; at 1 μM) [%]","PDE1C, % inhibition (at 1 μM) (PDE1C; at 1 μM) [%]","inhibition at 1 µM (PDE1B; read-out: PDE1B, % inhibition (at 1 μM)) [%]","inhibition at 1 µM (PDE1C; read-out: PDE1C, % inhibition (at 1 μM)) [%]"
"Cc1cn2c(C3CCOCC3)ncc2c(=O)n1Cc1ccccc1F [Example 17, 7-(2-Fluorobenzyl)-6-methyl-3-(tetrahydro-2H-pyran-4-yl)imidazo[1,5-a]pyrazin-8(7H)-one]",42,36,9,7,–,–,–,–,–,–,–
"O=c1c2cnc(C3CC3)n2ccn1CC1CCCC1 [Example 7, 7-(Cyclopentylmethyl)-3-cyclopropylimidazo[1,5-a]pyrazin-8(7H)-one]",–,–,230,1,60,85,–,–,–,–,–
"CCc1cn2c(C3CCOCC3)ncc2c(=O)n1Cc1ccccc1 [Example 43, 7-benzyl-6-ethyl-3-(tetrahydro-2H-pyran-4-yl)imidazo[1,5-a]pyrazin-8(7H)-one]",105,32,9,6,–,–,–,–,–,–,–
"Cc1cn2c(C3CCOCC3)ncc2c(=O)n1Cc1ccsc1 [Example 79, 6-methyl-3-(tetrahydro-2H-pyran-4-yl)-7-(thiophen-3-ylmethyl)imidazo[1,5-a]pyrazin-8(7H)-one]",228,112,15,14,–,–,–,–,–,–,–
"Cc1cn2c([C@H]3C[C@@H]3C)ncc2c(=O)n1Cc1cccc(F)c1 (single isomer, unassigned; isomer 3) [35, isomer 3]",82,18,8,–,–,–,0,–,–,–,–
"COc1ccc(Cn2c(CC3CCCC3)cn3c(C4CCOCC4)ncc3c2=O)cc1 [Example 92, 6-(cyclopentylmethyl)-7-(4-methoxybenzyl)-3-(tetrahydro-2H-pyran-4-yl)imidazo[1,5-a]pyrazin-8(7H)-one]",71,11,79,57,–,–,–,–,–,–,–
"Cc1cn2c([C@H]3C[C@H]3C)ncc2c(=O)n1Cc1cccc(F)c1 (single isomer, unassigned; isomer 4) [35, isomer 4]",–,360,85,–,–,–,5,43,–,–,–
"Cc1cn2c([C@]3(C)CCOC3)ncc2c(=O)n1Cc1cccc(F)c1 (single isomer, unassigned; isomer 1) [32, isomer 1]",257,122,22,–,–,–,−1,–,–,–,–
"Cc1cn2c([C@H]3CCO[C@H]3C)ncc2c(=O)n1Cc1cccc(F)c1 (single isomer, unassigned; isomer 4) [36, isomer 4]",51,520,–,–,–,–,11,–,40,–,–
"O=c1c2cnc(C3CCOCC3)n2cc(Cc2ccccc2)n1Cc1cccc(F)c1 [Example 2, 6-Benzyl-7-(3-fluorobenzyl)-3-(tetrahydro-2H-pyran-4-yl)imidazo[1,5-a]pyrazin-8(7H)-one]",51,14,11,-14,–,–,–,–,–,–,–
"Cc1cn2c(C3CCOCC3)ncc2c(=O)n1Cc1ccc(OC(F)(F)F)cc1 [Example 41, 6-methyl-3-(tetrahydro-2H-pyran-4-yl)-7-(4-(trifluoromethoxy)benzyl)imidazo[1,5-a]pyrazin-8(7H)-one]",27,18,52,-22,–,–,–,–,–,–,–
"CCCc1ncc2c(=O)n(CC3CCCCC3)c(C)cn12 [Example 85, 7-(cyclohexylmethyl)-6-methyl-3-propylimidazo[1,5-a]pyrazin-8(7H)-one]",120,32,32,7,–,–,–,–,–,–,–
"Cc1cn2c(C3CCOCC3)ncc2c(=O)n1Cc1ccc(C#N)cc1 [Example 46, 4-((6-methyl-8-oxo-3-(tetrahydro-2H-pyran-4-yl)imidazo[1,5-a]pyrazin-7(8H)-yl)methyl)benzonitrile]",809,–,–,14,–,–,–,–,–,58,9
